Several values for one entry are separate records, joined by “and”; a condition that tells them apart may be missing. Identical values can stand only once.
Tested on: Rattus norvegicus
Test: Anti-inflammatory activity in Wistar rat assessed as inhibition of carrageenan-induced paw edema at 10 mg/kg, ip pretreated for 1 hr followed by carrageenan challenge and measured after 3 hr relative to control (reference value: 0.00 +/-0.1 %)
Format: functional
Details: time 4 hrs

SMILES | inhibition in vivo at 10 mg/kg [%]
COc1cc(/C=C/C(=O)/C=C(O)/C=C/c2ccc(OC(=O)C(C)NC(=O)OC(C)(C)C)c(OC)c2)ccc1OC(=O)C(C)NC(=O)OC(C)(C)C (stereo not given) | 25

Tested on: Rattus norvegicus
Test: Antiinflammatory activity in Wistar rat model of carrageenan-induced paw edema assessed as reduction in thickness of paw edema at 10 mg/kg, ip pretreated for 1 hr followed by carrageenan challenge and measured after 4 hrs (reference value: 1.40 +/-0.10 mm)
Format: functional
Details: time 5 hrs

SMILES | Activity [mm]
COc1cc(/C=C/C(=O)/C=C(O)/C=C/c2ccc(OC(=O)C(C)NC(=O)OC(C)(C)C)c(OC)c2)ccc1OC(=O)C(C)NC(=O)OC(C)(C)C (stereo not given) | 0.84

Tested on: Salmonella typhimurium
Test: Antibacterial activity against Salmonella typhimurium ATCC 19430 incubated for 18 hrs by agar dilution assay
Format: functional, Salmonella enterica subsp. enterica serovar Typhimurium
Details: Salmonella enterica

MIC | SMILES
0.25 µg/mL and 0.352 µM | COc1cc(/C=C/C(=O)/C=C(O)/C=C/c2ccc(OC(=O)C(C)NC(=O)OC(C)(C)C)c(OC)c2)ccc1OC(=O)C(C)NC(=O)OC(C)(C)C (stereo not given)

Tested on: Pseudomonas aeruginosa
Test: Antibacterial activity against Pseudomonas aeruginosa ATCC 27853 incubated for 18 hrs by agar dilution assay
Format: functional
Details: not given

MIC | SMILES
0.25 µg/mL and 0.352 µM | COc1cc(/C=C/C(=O)/C=C(O)/C=C/c2ccc(OC(=O)C(C)NC(=O)OC(C)(C)C)c(OC)c2)ccc1OC(=O)C(C)NC(=O)OC(C)(C)C (stereo not given)

Tested on: Rattus norvegicus
Test: Anti-inflammatory activity in Wistar rat assessed as inhibition of carrageenan-induced paw edema at 10 mg/kg, ip pretreated for 1 hr followed by carrageenan challenge and measured after 24 hr relative to control (reference value: 0.00 +/-0.3 %)
Format: functional
Details: time 25 hrs

SMILES | inhibition in vivo at 10 mg/kg [%]
COc1cc(/C=C/C(=O)/C=C(O)/C=C/c2ccc(OC(=O)C(C)NC(=O)OC(C)(C)C)c(OC)c2)ccc1OC(=O)C(C)NC(=O)OC(C)(C)C (stereo not given) | 29

Tested on: Peritoneal macrophage
Test: Antiinflammatory activity in […] mouse Peritoneal macrophages assessed as inhibition of LPS-induced NO production at 10 uM preincubated for 1 hr followed by LPS stimulation measured after 24 hrs by Griess method relative to control (reference value: 0.0 %)
Format: functional
Set-up: scale not given: the % may be the effect or the level left
Details: time 25 hrs

SMILES | Activity [%]
COc1cc(/C=C/C(=O)/C=C(O)/C=C/c2ccc(OC(=O)C(C)NC(=O)OC(C)(C)C)c(OC)c2)ccc1OC(=O)C(C)NC(=O)OC(C)(C)C (stereo not given) | 30.88

Tested on: Rattus norvegicus
Test: Antiinflammatory activity in Wistar rat model of carrageenan-induced paw edema assessed as reduction in thickness of paw edema at 10 mg/kg, ip pretreated for 1 hr followed by carrageenan challenge and measured after 1 hr (reference value: 2.41 +/-0.05 mm)
Format: functional
Details: time 1 hr after carrageenan

SMILES | Activity [mm]
COc1cc(/C=C/C(=O)/C=C(O)/C=C/c2ccc(OC(=O)C(C)NC(=O)OC(C)(C)C)c(OC)c2)ccc1OC(=O)C(C)NC(=O)OC(C)(C)C (stereo not given) | 2.15

Tested on: Rattus norvegicus
Test: Antiinflammatory activity in Wistar rat model of carrageenan-induced paw edema assessed as reduction in thickness of paw edema at 10 mg/kg, ip pretreated for 1 hr followed by carrageenan challenge and measured after 2 hrs (reference value: 2.06 +/-0.09 mm)
Format: functional
Details: time 3 hrs

SMILES | Activity [mm]
COc1cc(/C=C/C(=O)/C=C(O)/C=C/c2ccc(OC(=O)C(C)NC(=O)OC(C)(C)C)c(OC)c2)ccc1OC(=O)C(C)NC(=O)OC(C)(C)C (stereo not given) | 1.74

Tested on: Peritoneal macrophage
Test: Antiinflammatory activity in […] mouse Peritoneal macrophages assessed as reduction in LPS-induced NO production by measuring reduction in stimulation index at 10 uM preincubated for 1 hr followed by LPS stimulation measured after 24 hrs by Griess method (reference value: 27.31 +/- 2.56 uM)
Format: functional
Details: time 25 hrs

SMILES | Activity [µM]
COc1cc(/C=C/C(=O)/C=C(O)/C=C/c2ccc(OC(=O)C(C)NC(=O)OC(C)(C)C)c(OC)c2)ccc1OC(=O)C(C)NC(=O)OC(C)(C)C (stereo not given) | 18.88

Tested on: Rattus norvegicus
Test: Antiinflammatory activity in Wistar rat model of carrageenan-induced paw edema assessed as reduction in thickness of paw edema at 10 mg/kg, ip pretreated for 1 hr followed by carrageenan challenge and measured after 24 hrs (reference value: 0.83 +/-0.08 mm)
Format: functional
Details: time 25 hrs

SMILES | Activity [mm]
COc1cc(/C=C/C(=O)/C=C(O)/C=C/c2ccc(OC(=O)C(C)NC(=O)OC(C)(C)C)c(OC)c2)ccc1OC(=O)C(C)NC(=O)OC(C)(C)C (stereo not given) | 0.59

Tested on: Streptococcus pyogenes
Test: Antibacterial activity against Streptococcus pyogenes ATCC 19615 incubated for 18 hrs by agar dilution method
Format: functional
Details: not given

MIC | SMILES
0.125 µg/mL and 0.176 µM | COc1cc(/C=C/C(=O)/C=C(O)/C=C/c2ccc(OC(=O)C(C)NC(=O)OC(C)(C)C)c(OC)c2)ccc1OC(=O)C(C)NC(=O)OC(C)(C)C (stereo not given)

Tested on: Rattus norvegicus
Test: Anti-inflammatory activity in Wistar rat assessed as inhibition of carrageenan-induced paw edema at 10 mg/kg, ip pretreated for 1 hr followed by carrageenan challenge and measured after 1 hr relative to control (reference value: 0.00 +/-0.02 %)
Format: functional
Details: time 2 hrs

SMILES | inhibition in vivo at 10 mg/kg [%]
COc1cc(/C=C/C(=O)/C=C(O)/C=C/c2ccc(OC(=O)C(C)NC(=O)OC(C)(C)C)c(OC)c2)ccc1OC(=O)C(C)NC(=O)OC(C)(C)C (stereo not given) | 11

Tested on: Rattus norvegicus
Test: Anti-inflammatory activity in Wistar rat assessed as inhibition of carrageenan-induced paw edema at 10 mg/kg, ip pretreated for 1 hr followed by carrageenan challenge and measured after 2 hr relative to control (reference value: 0.00 +/-0.03 %)
Format: functional
Details: time 3 hrs

SMILES | inhibition in vivo at 10 mg/kg [%]
COc1cc(/C=C/C(=O)/C=C(O)/C=C/c2ccc(OC(=O)C(C)NC(=O)OC(C)(C)C)c(OC)c2)ccc1OC(=O)C(C)NC(=O)OC(C)(C)C (stereo not given) | 16

Tested on: Staphylococcus aureus
Test: Antibacterial activity against Staphylococcus aureus ATCC 25923 incubated for 18 hrs by agar dilution method
Format: functional
Details: not given

MIC | SMILES
0.25 µg/mL and 0.352 µM | COc1cc(/C=C/C(=O)/C=C(O)/C=C/c2ccc(OC(=O)C(C)NC(=O)OC(C)(C)C)c(OC)c2)ccc1OC(=O)C(C)NC(=O)OC(C)(C)C (stereo not given)

Tested on: Splenocyte
Test: Immunomodulatory activity in Swiss albino mouse splenocytes assessed as cell viability at 10 uM by measuring stimulation index incubated for 72 hrs in presence of mitogenic stimulus phytohaemagglutinin by MTT assay (reference value: 1.00 +/- 0.24)
Format: functional
Details: not given

SMILES | Activity_index
COc1cc(/C=C/C(=O)/C=C(O)/C=C/c2ccc(OC(=O)C(C)NC(=O)OC(C)(C)C)c(OC)c2)ccc1OC(=O)C(C)NC(=O)OC(C)(C)C (stereo not given) | 1.78

Tested on: Rattus norvegicus
Test: Anti-inflammatory activity in Wistar rat assessed as inhibition of carrageenan-induced paw edema at 10 mg/kg, ip pretreated for 1 hr followed by carrageenan challenge and measured after 4 hr relative to indomethacin
Format: functional
Details: time 5 hrs

SMILES | inhibition in vivo at 10 mg/kg [%]
COc1cc(/C=C/C(=O)/C=C(O)/C=C/c2ccc(OC(=O)C(C)NC(=O)OC(C)(C)C)c(OC)c2)ccc1OC(=O)C(C)NC(=O)OC(C)(C)C (stereo not given) | 46

Tested on: Rattus norvegicus
Test: Antiinflammatory activity in Wistar rat model of carrageenan-induced paw edema assessed as reduction in thickness of paw edema at 10 mg/kg, ip pretreated for 1 hr followed by carrageenan challenge and measured after 3 hrs (reference value: 1.79 +/-0.07 mm)
Format: functional
Details: time 4 hrs

SMILES | Activity [mm]
COc1cc(/C=C/C(=O)/C=C(O)/C=C/c2ccc(OC(=O)C(C)NC(=O)OC(C)(C)C)c(OC)c2)ccc1OC(=O)C(C)NC(=O)OC(C)(C)C (stereo not given) | 1.34

Tested on: Candida albicans
Test: Antifungal activity against Candida albicans incubated for 18 to 24 hrs by CLSI method
Format: functional
Details: time 18-24 hrs

MIC | SMILES
0.5 µg/mL and 0.703 µM | COc1cc(/C=C/C(=O)/C=C(O)/C=C/c2ccc(OC(=O)C(C)NC(=O)OC(C)(C)C)c(OC)c2)ccc1OC(=O)C(C)NC(=O)OC(C)(C)C (stereo not given)

Tested on: Rattus norvegicus
Test: Anti-inflammatory activity in Wistar rat assessed as inhibition of carrageenan-induced paw edema at 10 mg/kg, ip pretreated for 1 hr followed by carrageenan challenge and measured after 4 hr relative to control (reference value: 0.00 +/-0.4 %)
Format: functional
Details: time 5 hrs

SMILES | inhibition in vivo at 10 mg/kg [%]
COc1cc(/C=C/C(=O)/C=C(O)/C=C/c2ccc(OC(=O)C(C)NC(=O)OC(C)(C)C)c(OC)c2)ccc1OC(=O)C(C)NC(=O)OC(C)(C)C (stereo not given) | 40

Tested on: Splenocyte
Test: Immunomodulatory activity in Swiss albino mouse splenocytes assessed as cell viability at 10 uM by measuring inhibition of stimulation index incubated for 72 hrs in presence of mitogenic stimulus phytohaemagglutinin by MTT assay relative to indomethacin
Format: functional
Details: read-out: Activity

SMILES | viability at 10 µM [%]
COc1cc(/C=C/C(=O)/C=C(O)/C=C/c2ccc(OC(=O)C(C)NC(=O)OC(C)(C)C)c(OC)c2)ccc1OC(=O)C(C)NC(=O)OC(C)(C)C (stereo not given) | 67.9

— ChEMBL document CHEMBL4765295, “Synthesis, pharmacological profile and 2D-QSAR studies of curcumin-amino acid conjugates as potential drug candidates” (Eur J Med Chem, 2020)
